Source: the NIST ThermoML archive (doi:10.1021/je900545v)
Numbers after ± are expanded uncertainties.

What was measured:
[1] = xn = mol fraction of the nth substance listed; details: 298.15 K, 101 kPa, Liquid
[2] = refractive index (Na D-line) (dimensionless); xn = mol fraction of the nth substance listed; details: 298.15 K, 101 kPa, Liquid

C=CCn1cc[n+](C)c1.[Cl-] [1-allyl-3-methylimidazolium chloride] + O
viscosity ([1]; x1 = 0.02156): 1.252 ± 0.066 mPa·s | mass density ([1]; x1 = 0.02565): 1024 ± 7.4 kg/m3 | viscosity ([1]; x1 = 0.02565): 1.322 ± 0.069 mPa·s | mass density ([1]; x1 = 0.02973): 1026 ± 7.4 kg/m3 | viscosity ([1]; x1 = 0.02973): 1.394 ± 0.073 mPa·s | mass density ([1]; x1 = 0.03394): 1029.2 ± 7.4 kg/m3 | viscosity ([1]; x1 = 0.03394): 1.473 ± 0.076 mPa·s | mass density ([1]; x1 = 0.04442): 1040 ± 7.4 kg/m3 | viscosity ([1]; x1 = 0.04442): 1.677 ± 0.086 mPa·s | mass density ([1]; x1 = 0.05536): 1046.8 ± 7.4 kg/m3 | viscosity ([1]; x1 = 0.05536): 1.9 ± 0.097 mPa·s | mass density ([1]; x1 = 0.06646): 1054.2 ± 7.4 kg/m3 | viscosity ([1]; x1 = 0.06646): 2.166 ± 0.11 mPa·s | mass density ([1]; x1 = 0.07857): 1061.8 ± 7.4 kg/m3 | viscosity ([1]; x1 = 0.07857): 2.475 ± 0.12 mPa·s | mass density ([1]; x1 = 0.09138): 1073 ± 7.4 kg/m3 | viscosity ([1]; x1 = 0.09138): 3.118 ± 0.15 mPa·s | mass density ([1]; x1 = 0.1143): 1084.1 ± 7.3 kg/m3 | viscosity ([1]; x1 = 0.1143): 3.867 ± 0.19 mPa·s | mass density ([1]; x1 = 0.1369): 1092 ± 7.2 kg/m3 | viscosity ([1]; x1 = 0.1369): 4.806 ± 0.23 mPa·s | mass density ([1]; x1 = 0.1616): 1100 ± 7.1 kg/m3 | viscosity ([1]; x1 = 0.1616): 5.974 ± 0.28 mPa·s | mass density ([1]; x1 = 0.1867): 1105.8 ± 6.9 kg/m3 | viscosity ([1]; x1 = 0.1867): 7.441 ± 0.33 mPa·s | mass density ([1]; x1 = 0.211): 1110.2 ± 6.7 kg/m3 | viscosity ([1]; x1 = 0.211): 7.9 ± 0.35 mPa·s | mass density ([1]; x1 = 0.2245): 1108.9 ± 6.6 kg/m3 | viscosity ([1]; x1 = 0.2245): 8.518 ± 0.37 mPa·s | mass density ([1]; x1 = 0.3233): 1127.8 ± 5.9 kg/m3 | viscosity ([1]; x1 = 0.3233): 18 ± 0.72 mPa·s | mass density ([1]; x1 = 0.5083): 1132.8 ± 4.6 kg/m3 | viscosity ([1]; x1 = 0.5083): 48 ± 2 mPa·s | mass density ([1]; x1 = 1): 1166 ± 2.7 kg/m3 | viscosity ([1]; x1 = 1): 821 ± 310 mPa·s | refractive index ([2]; x1 = 0.000171): 1.3329 ± 0.0051 | refractive index ([2]; x1 = 0.000362): 1.333 ± 0.0051 | refractive index ([2]; x1 = 0.000553): 1.3333 ± 0.0051 | refractive index ([2]; x1 = 0.000754): 1.3336 ± 0.0051 | refractive index ([2]; x1 = 0.001151): 1.334 ± 0.0051 | refractive index ([2]; x1 = 0.001575): 1.3346 ± 0.0051 | refractive index ([2]; x1 = 0.002478): 1.336 ± 0.0051 | refractive index ([2]; x1 = 0.003359): 1.3375 ± 0.0051 | refractive index ([2]; x1 = 0.004859): 1.34 ± 0.0051 | refractive index ([2]; x1 = 0.006386): 1.3421 ± 0.0051 | refractive index ([2]; x1 = 0.008102): 1.3452 ± 0.0051 | refractive index ([2]; x1 = 0.009949): 1.347 ± 0.0051 | refractive index ([2]; x1 = 0.01179): 1.3495 ± 0.0051 | refractive index ([2]; x1 = 0.01373): 1.352 ± 0.0051 | refractive index ([2]; x1 = 0.01765): 1.3574 ± 0.0051 | refractive index ([2]; x1 = 0.02156): 1.3635 ± 0.0051 | refractive index ([2]; x1 = 0.02565): 1.3676 ± 0.0051 | refractive index ([2]; x1 = 0.02973): 1.373 ± 0.0051 | refractive index ([2]; x1 = 0.03394): 1.3775 ± 0.0051 | refractive index ([2]; x1 = 0.04442): 1.3888 ± 0.0051 | refractive index ([2]; x1 = 0.05536): 1.3995 ± 0.005 | refractive index ([2]; x1 = 0.06646): 1.4084 ± 0.005 | refractive index ([2]; x1 = 0.07857): 1.4176 ± 0.005 | refractive index ([2]; x1 = 0.09138): 1.4315 ± 0.005 | refractive index ([2]; x1 = 0.1143): 1.4464 ± 0.005 | refractive index ([2]; x1 = 0.1369): 1.4574 ± 0.005 | refractive index ([2]; x1 = 0.1616): 1.4673 ± 0.005 | refractive index ([2]; x1 = 0.1867): 1.4742 ± 0.005 | refractive index ([2]; x1 = 0.211): 1.4831 ± 0.005
